The subject of the assay is coronavirus. The experiment in a line: viral load reduction study, compound mixed with virus suspension. It counts as cell-based. The note with it: eight parts compound mixed with one part virus suspension, room temperature, 10 min contact; FIG. 4(A). Here is the method:
For viral load reduction studies directly employing the coronavirus, eight parts of the compound were adapted to room temperature (RT) and mixed with one part of the virus suspension. Immediately after incubation for defined periods at room temperature, the mixture was diluted 1:10. After four days of incubation at 37° C. in a CO2 incubator, cells were microscopically examined for virus-specific cytopathogenic effects after 10 min of virus contact with the niobium compound. All tests were performed in triplicate.
Initially, exploratory studies were carried out with different proportions of the compounds and with the materials separately. […] In fact, the results of samples S10 (representing a solution containing pure CTAB dissolved in water) and S12 (sample containing the same content of CTAB reacted with niobium), clearly indicate the potentiated effect of the Nb-CTAB species.

Experimental findings from patent publication US20230240300A1, “NANO[…] MATERIAL BASED ON NIOBIUM OLIGOMERS, OBTENTION METHOD, AND USE” (UNIVERSIDADE FEDERAL DE MINAS GERAIS, priority 2020, published 2023) are described below.

SMILES strings stand for the structures.

Consider `CCCCCCCCCCCCCCCC[N+](C)(C)C.[Br-]` [CTAB, hexadecyltrimethylammonium bromide], for which the viral load reduction result was “approximately 30%”.
